According to patent US20050144659A1, “Animals and cells containing a mutated alpha2delta gene” (priority 2003, published 2005):

Experiments:
[1] = system: R217A mutant lines and background mouse strains; assay: Maximal electroshock procedure (MES); format: in vivo; conditions: for responsiveness to anticonvulsant effects: all background strains, mutant, heterozygous mutant and wildtype (all lines)
Description: Anticonvulsant effectiveness was determined by using an electroconvulsive seizure model as described elsewhere [White et al., 1995]. Mice had free access to food and water and were housed in a temperature and light-controlled environment (12 h on/12 h off) prior to drug administration. Electroshock in mice was delivered using corneal electrodes with varied electroshock intensity. Current was delivered (60 Hz sinusoidal current, 11 to 17 mA baseline to peak vs. 50 mA for 0.2 s) using a constant-current stimulator (Wahlquist Instruments, Salt Lake City, Utah). The intensities of current necessary to produce tonic extensor seizures for each mouse strain and mutant lines in all of the mice were determined. These currents were then used for further testing of mice with pregabalin. All dose-response testing was conducted at the previously determined time of peak drug effect. Groups of 10 mice each were give various intraperitoneal doses of pregabalin dissolved in 0.9% saline, diazepam (veh) or phenyloin and given in a volume of 10 ml/kg of body weight. ED50 values (calculated dose required to inhibit the hindlimb tonic-extensor component of the maximal electroshock seizure in 50% of the animals tested) were determined by probit analysis [Litchfield, Wilcoxon], and used to compare relative potency between compounds. At least four groups of mice and each animal was employed once. The animals, pretreated with different doses of the tested drugs, were challenged with one electroshock at previously determined times of peak drug effect (pregabalin: 120 min; diazepam: 60 min; phenyloin; 60 min).
Anticonvulsant effects of pregabalin were reduced in −/− mice as compared to the +/+mice.

[2] = system: R217A WT, HET and KI mice and parent strains; assay: Vogel water-lick conflict; format: in vivo, mouse; conditions: for anxiolytic-like effect: R217A knockins
Source text: Albino or C57BL/6J-Tyr were also included in the experiments for comparison purposes. Male C57BL/6J (Jackson Laboratories), and 129S6/SvEV (Taconic Farms) mice were received at 8 weeks old in quantities sufficient for each study to be completed in one experiment. Parent strains were housed one week prior to testing.
On the side of each chamber (1.5 in. above the floor) a module optical lickometer was mounted. The lickometer was used to measure licking from a drink tube attached to a water bottle mounted on the exterior of the chamber. A photo beam was piped via glass rods across a gap at the end of the drink tube. The subject's tongue breaks the beam when it drinks from the tube and each lick was automatically recorded. […] The reduced chamber space limited the animal's activity and directed behavior towards the drink tube during a 10-minute session. The front and back of the test chamber was made of clear Plexiglas. The front door was covered to reduce distractions from inside the test room. The back of the test chamber faced a wall, away from the flow of traffic in the testing room, and remained uncovered to provide the opportunity for observations. Shock was delivered between the grid floor and the drink tube using a (Coulbourn) programmable universal shocker for a duration of one second, but terminated immediately when contact between the animal and drink tube was broken.
PROCEDURE: On day one, after 24 hours of water deprivation, experimental subjects were placed in the test chambers and allowed to drink unpunished for a 10-minute training session. Mice were required to complete a 100-150 lick criteria during the training session. […] Immediately after the day one session mice were returned to their home cages and deprived of water and food for an additional 24 hours. On test day two, mice were dosed by intraperitoneal (IP) injection with vehicle or test compound. After a 60 or 120-minute absorption period mice were placed into the test chambers for a 10-minute test session. During the test, shock was delivered on a fixed ratio (FR) 10 schedule. Therefore, after every 10th lick the subject received a mild shock. […] A low number of shock episodes accepted reflects anxiety-related behavior. Standard anxiolytic drugs produce effects that allow mice to overcome the behavioral inhibition and drink despite the shock. […] All data were analyzed using a one-way ANOVA/Dunn's Method.
DRUGS: Pregabalin was dissolved in physiological saline for all experiments. The positive control diazepam was suspended in 2% cremophor in physiological saline.
C57BL/6J mice were tested at 0.4 mA, C57BL/6J-Tyr mice were tested at 0.1 mA and 129S6/SvEV mice were tested at 0.6 mA. […]

[3] = system: brain membranes from the R217A mutant mouse; assay: 3H gabapentin binding to mouse brain membranes; conditions: R217A mutant mouse in comparison to wildtype mice; tracer 3H gabapentin; FIG. 3
Description: Membranes were prepared from whole mouse brains. […] Total binding was determined in the absence of competitor. Non-specific binding was determined in the presence of 10 μM unlabeled pregabalin.

[4] = biological target: α2/δ2 (Homo sapiens, UniProt Q9NY47); conditions: background statement; cited from earlier work
Sequence of α2/δ2 (Q9NY47 19-1150): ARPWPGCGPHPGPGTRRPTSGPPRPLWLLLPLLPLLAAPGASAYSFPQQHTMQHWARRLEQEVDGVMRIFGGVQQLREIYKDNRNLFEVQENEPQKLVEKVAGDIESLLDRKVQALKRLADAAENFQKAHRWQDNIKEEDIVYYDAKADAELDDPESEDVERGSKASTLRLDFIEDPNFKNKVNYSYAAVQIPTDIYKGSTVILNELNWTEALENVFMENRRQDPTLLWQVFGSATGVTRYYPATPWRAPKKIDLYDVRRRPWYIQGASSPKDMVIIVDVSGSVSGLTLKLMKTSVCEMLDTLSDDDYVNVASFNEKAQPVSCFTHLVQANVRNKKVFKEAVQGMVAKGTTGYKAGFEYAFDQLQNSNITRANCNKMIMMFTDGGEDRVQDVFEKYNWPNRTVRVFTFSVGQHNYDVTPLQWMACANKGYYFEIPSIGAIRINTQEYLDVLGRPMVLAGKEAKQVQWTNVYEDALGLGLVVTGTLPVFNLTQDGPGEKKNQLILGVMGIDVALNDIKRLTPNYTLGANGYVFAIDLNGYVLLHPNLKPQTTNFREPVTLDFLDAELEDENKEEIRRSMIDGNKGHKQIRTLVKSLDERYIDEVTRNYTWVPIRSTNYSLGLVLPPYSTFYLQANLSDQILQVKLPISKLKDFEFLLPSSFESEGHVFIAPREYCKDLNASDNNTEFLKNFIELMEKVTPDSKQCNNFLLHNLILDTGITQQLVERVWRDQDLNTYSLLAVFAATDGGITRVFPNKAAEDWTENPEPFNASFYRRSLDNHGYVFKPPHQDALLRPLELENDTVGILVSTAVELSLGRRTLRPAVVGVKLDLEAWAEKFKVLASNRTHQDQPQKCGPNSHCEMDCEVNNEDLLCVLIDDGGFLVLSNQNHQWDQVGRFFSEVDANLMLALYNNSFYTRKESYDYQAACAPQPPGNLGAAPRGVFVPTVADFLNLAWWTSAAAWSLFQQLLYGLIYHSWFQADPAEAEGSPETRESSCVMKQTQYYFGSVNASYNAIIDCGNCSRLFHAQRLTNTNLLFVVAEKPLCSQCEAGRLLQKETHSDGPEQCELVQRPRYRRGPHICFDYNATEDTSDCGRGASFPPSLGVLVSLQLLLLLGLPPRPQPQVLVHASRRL
Sequence of α2/δ2 (Q9NY47 1002-1150 partner limits assumed): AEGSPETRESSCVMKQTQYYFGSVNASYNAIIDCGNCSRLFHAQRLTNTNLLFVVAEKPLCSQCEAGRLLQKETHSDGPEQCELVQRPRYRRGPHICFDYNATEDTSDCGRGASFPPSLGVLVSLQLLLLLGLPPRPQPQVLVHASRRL

[5] = system: α2/δ1 R217A wild type, heterozygous, and homozygous mice; assay: Formalin foot-pad procedure (formalin-induced hyperalgesia); format: in vivo, mouse; conditions: mice with arg 217 changed to alanine versus heterozygous and wildtype; PO, 120 minutes prior to testing; FIG. 4
Description: Male α2/δ1 R217A wild type, heterozygous, and homozygous mice, weighing 1940 grams, were used for testing. Animals were maintained on a 12 hour light/dark cycle with food and water available ad libitum. Animals were food deprived overnight the day before testing. On test day, animals were acclimated to the observation chambers for approximately 60 min. The observation chambers were eight inch square boxes consisting of solid, acrylic plastic mirrors for the floor and 3 walls. The fourth wall was clear acrylic that allowed for observation. Animals were dosed PO with either vehicle or pregabalin, 120 minutes prior to testing at a dose volume 10 mL/kg. At test time, animals received a 25 μL injection of a 5% formalin solution in water in the plantar surface of the left hind foot. […] These behaviors were timed using a hand-held stopwatch and recorded at 5 min intervals. Data was analyzed by the two distinct phases of responding. Early phase responding included Minutes 0-10, and late phase responding included Minutes 1145. The total time spent licking by drug-treated animals in each phase was compared to the total time spent licking by vehicle-treated animals.
FIG. 4 depicts formalin-induced hyperalgesia in R217A mutant homozygous mice in comparison to that of heterozygous and wildtype mice.

[6] = system: R217A knock-in and wild-type mice; assay: Chronic constriction injury (CCI)-induced static allodynia, von Frey hairs; format: in vivo, mouse; conditions: sub cutaneous 30-100 mg/kg, FIG. 8
Source text: Animals were placed in an anaesthetic chamber and anaesthetised with a 2% isofluorane O2 mixture. The right hind thigh is shaved and swabbed with 1% iodine. Animals were then transferred to a homeothermic blanket for the duration of the procedure and anaesthesia maintained during surgery via a nose cone. The skin was cut along the line of the thigh bone. The common sciatic nerve was exposed at the middle of the thigh by blunt dissection through biceps femoris. Proximal to the sciatic trifurcation, about 5 mm of nerve was freed by inserting forceps under the nerve and the nerve gently lifted out of the thigh. The forceps were gently opened and closed several times to aid clearance of the fascia from the nerve. […]
Animals were habituated to wire test cages prior to the assessment of allodynia. Static allodynia was evaluated by application of von Frey hairs (Stoelting, Wood Dale, Ill., U.S.A.) in ascending order of force ([…], 0.4, 0.6, 1.0, 1.5 and 2.0 g) to the plantar surface of hind paws. […] The lowest amount of force required to elicit a response was recorded as paw withdrawal threshold (PWT) in grams. […]
Baseline (BL) paw withdrawal thresholds (PWT) to von Frey hairs were assessed. Following drug administration PWT were re-assessed for up to 4 h. […]

[7] = system: α2/δ1 R217A wild type and homozygous mice; assay: Tail Suspension Test (TST); format: in vivo, mouse; conditions: R217A homozygous mutant versus wildtype mice; dosed 120 minutes prior to testing; FIG. 5
Description: Male α2/δ1 R217A wild type and homozygous mice, weighing 22-35 grams, were used for testing. Animals were maintained on a 12 hour light/dark cycle with food and water available ad libitum. Animals were food deprived overnight the day before testing. On test day, animals were placed by groups of 8 into holding cages to acclimate for sixty minutes prior to dosing. Vehicle or pregabalin was administered 120 minutes prior to testing at a dose volume of 10 mL/kg. At test time, a piece of transparent tape was placed around the distal portion of the tail. The tape was then attached to a hook connected to an electro-mechanical apparatus that recorded the amount of time a mouse moved and the force used during movement. The hook was located at the top of a 24×18 cm testing chamber. Animals were completely suspended in air approximately 5 cm off the floor of the chamber for six minutes. Mean time of struggling and force of movement were then calculated for each group of eight.
Animals are placed by groups of eight into holding cages to acclimate for thirty to sixty minutes prior to dosing. Treatments are generally administered 60 to 120 minutes prior to testing, although this also varies with specific compounds. At test time, a piece of scotch tape is placed around the distal portion of the tail. […]

CN1C(=O)CN=C(c2ccccc2)c2cc(Cl)ccc21 [diazepam]
responsiveness to anticonvulsant effects ([1]; FIG. 9): fully responsive
anxiolytic-like effect [2]: Diazepam (+control) failed to produce an anxiolytic-like effect in R217A knockins. Data suggests 129S6-parent strain's genotype may be responsible for pharmacological profile of diazepam

NCC1(CC(=O)O)CCCCC1 [gabapentin, 1-(aminomethyl)cyclohexaneacetic acid]
gabapentin binding to brain membranes [3]: reduced, or greatly abolished
binding affinity [4]: high affinity

O=C1NC(=O)C(c2ccccc2)(c2ccccc2)N1 [phenyloin]
responsiveness to anticonvulsant effects ([1]; FIG. 9): fully responsive

CC(C)C[C@H](CN)CC(=O)O [pregabalin]
efficacy in formalin-induced hyperalgesia (licking or biting of injected foot) [5]: reduced efficacy
effect on CCI-induced punctate allodynia (paw withdrawal threshold) ([6]; knock-in mice): no effect
blockade of CCI-induced punctate allodynia (paw withdrawal threshold) ([6]; wild type mice): significant blockade
potency in protecting against seizures ([1]; mutant mice versus wild-type, heterozygous or back-ground strains): less potent
anticonvulsant effects ([1]; −/− mice as compared to +/+ mice, FIG. 9): reduced
sensitivity to effects in MES ([1]; −/− mice versus +/+ mice, FIG. 9): less sensitive
increase @ 100 (punished responding) ([2]; Knockins, shock 0.7 mA, dose 100 (mg/kg IP)): non-significant
anxiolytic-like effect [2]: Pregabalin did not produce a significant anxiolytic-like effect in R217A knockins, and no evidence was obtained relating phenotype to particular parent strain
increase in punished licking ([2]; knock-in mice homozygous for R217A, compared to wild-type, heterozygous or back-ground strains): does not produce a statistically significant increase
sedative and/or anxiolytic effect in TST [7]: exerts its sedative and/or anxiolytic effect in TST through the α2/δ1 polypeptide
